{"source": "patent US8741659B2", "about": "“Composition for measuring the binding affinity between nucleic acid and test substance, and use thereof” (Osaka University, priority 2007, dated 2014)", "system": "RRE", "experiment": "Displacement assay using Rev peptide after formation of complex with RRE", "type": "binding, HIV-1", "settings": "compound and RRE each 2 μM, Rev protein 0-4.0 μM", "experimental": "In this Example, a binding affinity between a test substance and RRE was evaluated, with use of the compounds, X2S, X2S(3), X2S(4), X2S(5), X2S(2-Me), and 3,6-X2S(2). As the test substance, Rev protein used in Example 5 was used.\nFirstly, in the same manner as in Example 3, the above compounds and RREs were respectively dissolved in cacodylate buffer solutions (sodium cacodylate: 10 mM pH 7.0, NaCl: 100 mM) each at 2 μM, so that an X2S-RRE solution, an X2S(3)-RRE solution, an X2S(4)-RRE solution, an X2S(5)-RRE solution, an X2S(2-Me)-RRE solution, and a 3,6-X2S(2)-RRE solution were prepared.\nTo each of these solutions, Rev protein was added in stages at 0 μM, 0.4 μM, 0.8 μM, 1.2 μM, 1.6 μM, 2.0 μM, 2.4 μM, 2.8 μM, 3.2 μM, 3.6 μM, and 4.0 μM. Further, a fluorescence intensity was measured at each concentration. The fluorescence intensity was measured in the same manner as that described in Example 14.\nEach of FIGS. 43 to 48 is a view illustrating a result of the measurement of a binding affinity between Rev protein and RRE. […] In each of FIGS. 43 to 48, the horizontal axis represents the fluorescence wavelength, whereas the vertical axis represents the fluorescence intensity. […] Further, along the direction of the arrow extending from the curved line at the bottom, the curved lines, showing the respective results, are arranged in order of increasing amount of the test substance which was added.\nFIG. 49 is a view illustrating a relationship between an amount of Rev added and a fluorescence intensity, in connection with X2S, X2S(3), X2S(4), X2S(5), X2S(2-Me), and 3,6-X2S(2). Further, FIG. 49 is also a view plotting, based on the results illustrated in FIGS. 43 to 48, the fluorescence intensities detected at the fluorescence wavelength at which the respective fluorescence peaks were observed. FIG. 50 is a graph illustrating a relationship between an amount of Rev added and a recovery rate of the fluorescence intensity. In FIG. 49, the vertical axis represents the fluorescence intensity. In FIG. 50, the vertical axis represents the recovery rate of the fluorescence intensity. In each of FIGS. 49 and 50, the horizontal axis represents the amount of Rev added. That is, each of FIGS. 49 and 50 reflects amounts of the above compounds liberated from RREs due to the addition of Rev.\nThe recovery rate of the fluorescence intensity was obtained by dividing (i) a maximum value of the fluorescence intensity detected at each Rev concentration ranging from 0 μM to 4.0 μM in each of FIGS. 43 to 48 by (ii) a maximum value of the fluorescence intensity of the curved line at the top in each of FIGS. 43 to 48.\nIn this Example, 1-Pyrenemethanamide, hydrochloride was used to measure a binding affinity between a test substance and RRE. As the test substance, Rev protein used in Example 5 was used.\nFirstly, in the same manner as in Example 3, 1-Pyrenemethanamide, hydrochloride and RRE were dissolved in a cacodylate buffer solution (sodium cacodylate: 10 mM, pH 7.0; NaCl: 100 mM) each at 2 μM, so that a 1-Pyrenemethanamide, hydrochloride-RRE solution was prepared.\nTo the solution, Rev protein was added in steps at 0 μM, 0.4 μM, 0.8 μM, 1.2 μM, 1.6 μM, 2.0 μM, 2.4 μM, 2.8 μM, 3.2 μM, 3.6 μM, and 4.0 μM. Further, the solution at each concentration was irradiated with light having an excitation wavelength of 340 nm, and a fluorescence intensity was measured. A device used for measuring a fluorescence intensity and a variation in a slit width were the same as those in Example 13.\nFIG. 55 is a view illustrating a result of the measurement of a binding affinity between Rev protein and RRE. The horizontal axis represents the fluorescence wavelength, whereas the vertical axis represents the fluorescence intensity. […] Further, along a bottom-to-top direction, the curved lines, showing the respective results, are arranged in order of increasing amount of the test substance which was added. […]", "data": [{"smiles": "NCCOc1ccc2oc3ccc(OCCN)cc3c(=O)c2c1", "note": "[X2S, 2,7-bis(2-aminoethoxy)xanthen-9-one]", "values": [{"measurement": "fluorescence intensity in displacement assay", "value": "high"}, {"measurement": "recovery rate of the fluorescence intensity", "value": "good"}]}]}
